Non-standard residues stand in square brackets, D forms with d. Residues, ends and D or L forms follow the SMILES beside them. *: point of attachment. Phenylacetyl(2,3,4,5,6-F5) = O=C(Cc1c(F)c(F)c(F)c(F)c1F)*; Phe(F5) = N[C@@H](Cc1c(F)c(F)c(F)c(F)c1F)C(=O)O; Phe(4-Cl) = N[C@@H](Cc1ccc(Cl)cc1)C(=O)O; hArg = N=C(N)NCCCC[C@H](N)C(=O)O; 12Ado = NCCCCCCCCCCCC(=O)O; Nle = CCCC[C@H](N)C(=O)O; Abu = CC[C@H](N)C(=O)O
Experiments:
[1] = system: MX-1 breast cancer cells; assay: In vitro cell viability, MX-1; format: cell-based, human; conditions: Table 3B; 5 μM for 72 H; MIA-602 = 1
Protocol: (§1) The inhibitory effects of the various synthesized GHRH antagonists were tested in cell proliferation assays in various human cancer cell lines including stomach cancer (KATOIII, N87), colon cancer (HT-29), urothelial cancer (J82, RT4), pancreatic cancer (PANC-1, CFPAC-1), prostatic cancer (PC3), breast cancer (MX-1, HCC1806), ovarian cancer (SK-OV-3, OVCAR-3) and lung cancer (HCC827, H460).
(§2) Cell culture. Human cancer cell lines including pancreatic (PANC-1 and CFPAC-1), lung (HCC827 and H460), stomach (NCI-N87 and KATOIII), urothelial (J82, RT4), prostatic (PC3), breast (MX-1 and HCC 1806), colorectal (HT-29), and ovarian (SK-OV-3 and OVCAR-3) were obtained from the American Type Culture Collection (ATCC) and cultured at 37° C. in a humidified 95% air/5% CO2 atmosphere in the medium recommended by ATCC.
(§3) In vitro cell viability. Cell viability was analyzed as follows: cancer cells including pancreatic (PANC-1 and CFPAC-1), lung (HCC827 and H460), stomach (NCI-N87 and KATOIII), urothelial (J82, RT4), prostatic (PC3) and breast (MX-1 and HCC 1806), colorectal (HT-29) and ovarian (SK-OV-3 and OVCAR-3) were grown on 96 well plates to ˜60% confluence, the cells were starved for 24 h in culture medium containing 0.5% FBS. Cells were then treated with GHRH antagonists MIA602 AVR compounds at concentrations of 1, 2.5 or 5 μM, or vehicle (0.1% DMSO) in quintuplicates for 72 hours. The medium was replaced every 48 hours. Cell viability was measured using CellTiter 96 aqueous one solution kit (Promega). Inhibitory effects of tested AVR compounds in comparison to that of MIA602 are presented as inhibitory potency.
(§4) Inhibitory effects of selected AVR compounds in comparison to that of MIA602 are presented as inhibitory potency (e.g., percentage of inhibition). […] The cell lines tested including lung cancer HCC827 (FIG. 2A), pancreatic cancer CFPAC-1 (FIG. 2B), stomach cancer N87 (FIG. 2C), colon cancer HT-29 (FIG. 2D), breast cancers MX-1 and HCC1806 (FIGS. 2 E, F). Based on the results of cell proliferation assay after cancer cells were treated with antagonist at concentration of 5 μM for 72H, the relative inhibitory potency of AVR antagonists in comparison to MIA-602 is summarized in Table 3 A and B. Over 60 AVR compounds were tested in 12 cancer cell lines.
(§5) Based on the results of cell proliferation assay after cancer cells were treated with antagonist at concentration of 5 µM for 72H, * at concentration of 2 µM for 72 H.

[2] = system: prostate cancer PC3 xenograft; assay: Xenograft tumor growth in nude mice, PC3; format: in vivo; conditions: Table 4N, Prostate Ca PC3, 8 weeks, 5 μg/day s.c.; for % Inhibition: vs control
Protocol: (§6) The peptides' activity was compared with GHRH antagonist MIA-602. All statistical analyzses were performed from comparing GHRA antagonists to non-treated tumor (control).
(§7) Peptides and chemicals. GHRH antagonists MIA-602 and AVR-GHRH antagonists (see Table 2 above) were synthesized by solid phase methods and purified by HPLC. The peptides were dissolved in DMSO and further diluted in 10% 1,2-propanediol. The final concentration of peptides was 50 µg/ml in 10% 1,2-propanediol containing 0.1% of DMSO.
as §2, with “(NCI-N87), prostate” for “(NCI-N87 and KATOIII), urothelial (J82, RT4), prostatic”, “brest” for “breast”, “HCC-1806),” for “HCC 1806),”
(§8) Xenograft models of human cancers in nude mice. Female athymic (NCr nu/nu) nude mice, 5- to 6-weeks-old, obtained from the Envigo labs (Tampa, Fla.), were housed in laminar airflow cabinets under pathogen-free conditions with a 12-h light/12-h dark schedule, and were fed autoclaved standard chow and water. To generate mice with xenografted tumors, tumor xenografts were initiated by subcutaneous (s.c.) injection of 107 human cancer cells into female nude mice. After about 4 weeks the resulting tumors were dissected and collected after removing necrosis tissues. The tumors were then cut into particles with size of 3 mm3 and transplanted s.c. by trocar needle into experimental animals. When tumors grew to the size of 50-60 mm3 (by volume), mice were randomized into groups and treated daily for 4-8 weeks by subcutaneous administration of 5 μg of GHRH antagonists MIA-602 or AVR-compounds (2-10 μg as indicated), or vehicle solutions (0.1% DMSO in 10% 1,2-propanediol) respectively. Tumor sizes were measured weekly.
(§9) Statistical analysis. One-way ANOVA followed by Bonferroni comparison were performed. Data are expressed as Mean±SEM. To determine statistical significance between animal groups, two-tailed Student's t-test was conducted. Differences were considered significant when p<0.05.
(§10) Results. […] FIG. 1A-N represents in vivo inhibition of tumor growth during the treatment with GHRH antagonist MIA-602 and selected AVR antagonists in nude mice xenografted with various human tumors including pancreatic cancer PANC-1 (FIG. 1A) and CFPAC-1 (FIG. 1I); lung cancer HCC827 (FIGS. 1B, C) and H460 (FIG. 1H); stomach cancer N87 (FIGS. 1D-F); colon cancer HT-29 (FIG. 1G); breast cancer MX-1 and HCC-1806 (FIGS. 1J, K); ovarian cancer SK-OV-3 and OVACAR-3 (FIGS. 1 L, M) and prostate cancer PC3 (FIG. 1N). See also Table 5.

[3] = system: colon cancer HT-29 xenograft; assay: Xenograft tumor growth in nude mice, HT-29; format: in vivo; conditions: Table 4G, Colon Ca HT-29, 6 weeks, 5 μg/day s.c.
Protocol: as §6, §7
as §2, with “(NCI-N87), prostate” for “(NCI-N87 and KATOIII), urothelial (J82, RT4), prostatic”, “brest” for “breast”, “HCC-1806),” for “HCC 1806),”
as §8, §9, §10

[4] = system: HCC1806 breast cancer cells; assay: In vitro cell viability, HCC1806; format: cell-based, human; conditions: Table 3B; 5 μM for 72 H; MIA-602 = 1
Protocol: as §1, §2, §3, §4, §5

[5] = system: ovarian cancer SK-OV-3 xenograft; assay: Xenograft tumor growth in nude mice, SK-OV-3; format: in vivo; conditions: Table 4L, Ovarian Ca SK-OV-3, 7 weeks; for % Inhibition: vs control
Protocol: as §6, §7
as §2, with “(NCI-N87), prostate” for “(NCI-N87 and KATOIII), urothelial (J82, RT4), prostatic”, “brest” for “breast”, “HCC-1806),” for “HCC 1806),”
as §8, §9, §10

[6] = system: pancreatic cancer CFPAC-1 xenograft; assay: Xenograft tumor growth in nude mice, CFPAC-1; format: in vivo; conditions: Table 4I, Pancreatic Ca CFPAC-1, 7 weeks; for % Inhibition: vs control
Protocol: as §6, §7
as §2, with “(NCI-N87), prostate” for “(NCI-N87 and KATOIII), urothelial (J82, RT4), prostatic”, “brest” for “breast”, “HCC-1806),” for “HCC 1806),”
as §8, §9, §10

[7] = system: lung cancer H460 xenograft; assay: Xenograft tumor growth in nude mice, H460; format: in vivo; conditions: Table 4H, Lung Ca H460, 4 weeks, 5 μg/day s.c.
Protocol: as §6, §7
as §2, with “(NCI-N87), prostate” for “(NCI-N87 and KATOIII), urothelial (J82, RT4), prostatic”, “brest” for “breast”, “HCC-1806),” for “HCC 1806),”
as §8, §9, §10

CCCC[C@H](NC(=O)[C@@H](NC(=O)[C@H](CC(=O)O)NC(=O)[C@H](CCC(N)=O)NC(=O)[C@H](CC(C)C)NC(=O)[C@H](CC(C)C)NC(=O)[C@H](CCCCN)NC(=O)[C@H](CCCNC(=N)N)NC(=O)[C@H](C)NC(=O)[C@H](CO)NC(=O)[C@H](CC(C)C)NC(=O)[C@H](CCC(N)=O)NC(=O)[C@H](CC)NC(=O)[C@H](CC(C)C)NC(=O)[C@@H](NC(=O)[C@H](CCCCN)NC(=O)[C@H](CCCNC(=N)N)NC(=O)[C@H](Cc1c(F)c(F)c(F)c(F)c1F)NC(=O)[C@H](CCCCNC(=N)N)NC(=O)[C@H](C)NC(=O)[C@@H](NC(=O)[C@H](Cc1ccc(Cl)cc1)NC(=O)[C@@H](NC(=O)[C@H](C)NC(=O)[C@H](CC(=O)O)NC(=O)[C@@H](CCCNC(=N)N)NC(=O)[C@H](Cc1ccc(O)cc1)NC(=O)CCCCCCCCCCCNC(=O)Cc1c(F)c(F)c(F)c(F)c1F)[C@@H](C)CC)[C@@H](C)O)C(C)C)[C@@H](C)CC)C(=O)N[C@H](CCCNC(=N)N)C(=O)N[C@@H](CCCCNC(=N)N)C(=O)NCCCCCCCCCCCC(=O)NC [AVR-354] ({Phenylacetyl(2,3,4,5,6-F5)-12Ado}-Y[dR]DAI[Phe(4-Cl)]TA[hArg][Phe(F5)]RKVL[Abu]QLSARKLLQDI[Nle][dR][hArg][12Ado]-NHMe) was tested, and the “In vitro relative inhibitory potency in comparison to MIA-602, MX-1” value [1] was 1.594, the “Tumor Size (mm3)” value [2] was 343.6 mm3 and the “% Inhibition” value [2] was 58.4%. The “Tumor Size (mm^3)” value [3] was 417.90 mm^3, the “% Inhibition” value ([3]; vs control) was 42.3% and the “In vitro relative inhibitory potency in comparison to MIA-602, HCC-1806” value [4] was 3.991.

With CCCC[C@H](NC(=O)[C@@H](NC(=O)[C@H](CC(=O)O)NC(=O)[C@H](CCC(N)=O)NC(=O)[C@H](CC(C)C)NC(=O)[C@H](CC(C)C)NC(=O)[C@H](CCCCN)NC(=O)[C@H](CCCNC(=N)N)NC(=O)[C@H](C)NC(=O)[C@H](CO)NC(=O)[C@H](CC(C)C)NC(=O)[C@H](CCC(N)=O)NC(=O)[C@H](CC)NC(=O)[C@H](CC(C)C)NC(=O)[C@@H](NC(=O)[C@H](CCCCN)NC(=O)[C@H](CCCNC(=N)N)NC(=O)[C@H](Cc1ccc(OC)cc1)NC(=O)[C@H](CCCCNC(=N)N)NC(=O)[C@H](C)NC(=O)[C@@H](NC(=O)[C@H](Cc1c(F)c(F)c(F)c(F)c1F)NC(=O)[C@@H](NC(=O)[C@H](C)NC(=O)[C@H](CC(=O)O)NC(=O)[C@@H](CCCNC(=N)N)NC(=O)[C@H](Cc1ccc(O)cc1)NC(=O)CCCCCCCCCCCNC(=O)Cc1c(F)c(F)c(F)c(F)c1F)[C@@H](C)CC)[C@@H](C)O)C(C)C)[C@@H](C)CC)C(=O)N[C@H](CCCNC(=N)N)C(=O)N[C@@H](CCCCNC(=N)N)C(=O)NCCCCCCCCCCCC(N)=O [AVR-352, 5FPhAC-Ada-Tyr-DArg-Asp-Ala-Ile-5FPhe-Thr-Ala-Har-Tyr(Me)-Arg-Lys-Val-Leu-Abu-Gln-Leu-Ser-Ala-Arg-Lys-Leu-Leu-Gln-Asp-Ile-Nle-DArg-Har-Ada-NH2] ({Phenylacetyl(2,3,4,5,6-F5)-12Ado}-Y[dR]DAI[Phe(F5)]TA[hArg]Y(Me)RKVL[Abu]QLSARKLLQDI[Nle][dR][hArg][12Ado]-NH2) the “In vitro relative inhibitory potency in comparison to MIA-602, MX-1” value [1] was 2.793, the “Tumor Size (mm3)” value ([5]; 2.5 μg/day s.c.) was 718.4 mm3 and the “% Inhibition” value ([5]; 2.5 μg/day s.c.) was 45.0%. For the same compound, the “Tumor Size (mm3)” value ([5]; 5 μg/day s.c.) was 422.3 mm3, the “% Inhibition” value ([5]; 5 μg/day s.c.) was 67.7% and the “Tumor Growth %” value ([6]; 2.5 μg/day s.c.) was 1616.9%. For the same compound, the “% Inhibition” value ([6]; 2.5 μg/day s.c.) was 18.0%, the “Tumor Growth %” value ([6]; 5 μg/day s.c.) was 1448.4% and the “% Inhibition” value ([6]; 5 μg/day s.c.) was 26.5%. The “Tumor Size (mm3)” value [2] was 413.3 mm3, the “% Inhibition” value [2] was 50.0% and the “In vitro relative inhibitory potency in comparison to MIA-602, HCC-1806” value [4] was 4.85. The “Tumor Growth %” value [7] was 1738.3% and the “% Inhibition” value ([7]; vs control) was 48.6%.
